Measured values reported in paper PMC5361735, “Characterization and mechanisms of anti-influenza virus metabolites isolated from the Vietnamese medicinal plant Polygonum chinense” (BMC Complementary and Alternative Medicine, 2017).
≈ marks a conversion by molar mass, not a printed value. Read-outs that look alike come from different tables or passages of the source.

Experiments:
B/Lee/40 (Lee) [1] = assay: microbe, parasite or virus in culture; conditions: Influenza B virus, MDCK, 72 h, read-out: EC50 Lee
[2] = tested on: A/Hong Kong/8/68 (H3N2, HK); conditions: for S.I. (CC50/EC50) HK: Table 2; for EC50: read-out: EC50 HK
[3] = Cell viability (MTT) of mock-infected MDCK cells; conditions: dog, mock-infected MDCK cells
MDCK cells [4] = assay: Cell viability (MTT) of mock-infected MDCK cells; conditions: 300 μg/mL
[5] = tested on: A/Puerto Rico/8/34 (H1N1, PR8); assay: microbe, parasite or virus in culture; conditions: Influenza A virus, MDCK, 72 h, read-out: EC50 PR8
[6] = tested on: A/Hong Kong/8/68 (H3N2, HK); assay: microbe, parasite or virus in culture; conditions: Influenza A virus, H3N2, MDCK, 72 h, read-out: EC50 HK
B/Lee/40 (Lee) [7] = conditions: for S.I. (CC50/EC50) Lee: Table 2
[8] = tested on: influenza viruses PR8, HK and Lee; assay: CPE inhibition assay, results stated over all strains; type: cell-based, influenza A and B viruses; conditions: for EC50: Influenza A virus, PR8, range over the strains (and compounds named)
PR8 = assay: Time-of-addition plaque assay; type: cell-based, influenza A virus
[9] = tested on: influenza viruses PR8, HK and Lee; conditions: for inhibition of plaque formation: MOI 0.001, 3 days, crystal violet
Method: MDCK cells seeded in 48-well plates were infected with the influenza viruses at an MOI of 0.001 for 1 h at 33 °C (PR8) or 35 °C (HK and Lee). Test compounds and reference antiviral compounds were serially diluted in overlay medium [MEM containing 0.5% carboxymethylcellulose (CMC; Sigma) and 2 μg/mL TPCK-trypsin]. After washing with PBS, the cells were treated with the compounds in the overlay medium for 3 days at the temperature used for virus infection. Viral plaques were counted by staining with crystal violet [20].

PR8 virus (viral NP) = type: cell-based, influenza A virus
in vitro = conditions: dog
[10] = tested on: A/Puerto Rico/8/34 (H1N1, PR8); conditions: Table 2
MDCK cells [11] = conditions: dog, 3 days, 300 μg/mL
[12] = CPE inhibition assay, PR8, HK and Lee

| Structure (SMILES) | EC50 (B/Lee/40 (Lee) [1]) | S.I. (CC50/EC50) HK [2] | CC50 at 3 days [3] | EC50 [5] | EC50 [6] | S.I. (CC50/EC50) Lee (B/Lee/40 (Lee) [7]) | EC50 ([8]; CPE inhibition assay) | effect on plaques, pre-treatment (PR8) | inhibition of plaque formation [9] | effect on viral NP production/localization (PR8 virus (viral NP)) | CC50 at 3 days (in vitro) | S.I. (CC50/EC50) PR8 [10] | also measured |
| --- | --- | --- | --- | --- | --- | --- | --- | --- | --- | --- | --- | --- | --- |
| O=c1c(O)c(-c2ccc(O)c(O)c2)oc2cc(O)cc(O)c12 [PC1, Quercetin] | 15 mg/L | > 22.9 | > 300 mg/L | 12.6 mg/L (≈ 41.7 µM) | 13.1 mg/L | > 20.0 | – | – | – | – | – | – | cytotoxicity to MDCK cells at the highest concentration (MDCK cells [4]): without cytotoxicity |
| COC(=O)c1cc(O)c(O)c(O)c1 [PC7, Methyl gallate] | 19.2 mg/L | > 17.5 | – | 18.1 mg/L (≈ 98.3 µM) | 17.1 mg/L | > 15.6 | 14.7 to 81.1 mg/L (≈ 79.8 to 440 µM) | no inhibition | inhibited plaque formation of influenza A and B viruses in a dose-dependent manner | inhibit the early steps | > 300 mg/L | > 16.6 | plaque reduction, co-treatment (PR8): about 35%; reduction of viral infectivity, post-treatment (PR8): 15%; cytotoxicity seen as faint crystal violet background ([9]; MDCK cells, concentrations higher than 33 μg/mL): marginal cytotoxicity; reduction of cell viability (MDCK cells [11]): 49% |
| COC(=O)c1ccc(O)c(O)c1 [PC2, Protocatechuic acid methyl ester] | 11.1 mg/L | – | – | > 24.1 mg/L | > 24.1 mg/L | 2.2 | – | – | – | – | 24.1 mg/L | – | – |
| CCC(CC)O[C@@H]1C=C(C(=O)O)C[C@H](N)[C@H]1NC(C)=O [OSV-C, oseltamivir carboxylate, reference compound] | – | – | – | – | 0.005 µM | – | – | – | – | – | > 100 µM | – | anti-influenza activity in words [8, 12]: efficiently inhibited the replication of all viral strains tested; EC50 [2]: < 0.005 µM |
| O=C(O)c1cc(O)c(O)c(O)c1 [PC3, Gallic acid] | – | – | – | – | 17.5 mg/L | – | – | – | – | – | – | – | CC50 (in vitro): 111 mg/L (≈ 653 µM) |
| CC[C@H](CC[C@@H](C)[C@H]1CC[C@H]2[C@@H]3CC=C4C[C@@H](O)CC[C@]4(C)[C@H]3CC[C@]12C)C(C)C [PC6, β-Sitosterol] | > 300 mg/L | 1.0 | – | 282 mg/L (≈ 679 µM) | 300 mg/L | – | – | – | – | – | – | 1.1 | anti-influenza activity in words [8, 12]: marginal or no anti-influenza activity; CC50 (in vitro): 300 mg/L (≈ 723 µM) |
| NC(=O)c1ncn([C@@H]2O[C@H](CO)[C@@H](O)[C@H]2O)n1 [RBV, ribavirin, reference compound] | 26.6 µM | – | – | – | 20.5 µM | – | – | – | – | – | – | – | anti-influenza activity in words [8]: efficiently inhibited the replication of all viral strains tested; EC50 [2]: 15.5 µM; EC50 (B/Lee/40 (Lee) [7]; read-out: EC50 Lee): 17 µM |
| O=C(O)/C=C/c1ccc(O)c(O)c1 [PC8, Caffeic acid] | 14.7 mg/L | > 9.4 | > 300 mg/L | 37.8 mg/L (≈ 210 µM) | 32.1 mg/L | > 20.4 | 14.7 to 81.1 mg/L (≈ 81.6 to 450 µM) | no significant antiviral activity | inhibited plaque formation of influenza A and B viruses in a dose-dependent manner | did not affect NP signal intensity or its localization | – | > 7.9 | cytotoxicity to MDCK cells at the highest concentration (MDCK cells [4]): without cytotoxicity; effect on plaques, co-treatment (PR8): barely showed the efficacy at the maximum concentration; effect on plaques, post-treatment (PR8): no significant antiviral activity |
| O=c1oc2c(O)c(O)cc3c(=O)oc4c(O)c(O)cc1c4c23 [PC5, Ellagic acid] | 79.2 mg/L | > 4.8 | > 300 mg/L | 81.1 mg/L (≈ 268 µM) | 62.4 mg/L | > 3.8 | 14.7 to 81.1 mg/L (≈ 48.6 to 268 µM) | reduced viral plaque titers | inhibited plaque formation of influenza A and B viruses in a dose-dependent manner | inhibit the early steps | – | > 3.7 | effect on plaques, co-treatment (PR8): plaque reduction was more distinct; effect on plaques, post-treatment (PR8): reduced viral plaque titers |
